Values quoted from earlier work in patent US11553715B2, “Synthesis and formulation of lignin derived compounds as treatment of plant diseases” (University of Kentucky Research Foundation, priority 2019, dated 2023).

Experiments:
[1] = test system: yeast
[2] = test system: bacteria

For `COc1cc(C=O)ccc1O` [Vanillin], the “antimicrobial concentration as a food preservative” value [1] is listed as 0.76 mg/mL and the “antimicrobial concentration as a food preservative” value [2] is listed as 1.5 mg/mL.
